Legend:
[1] = tested on: New Zealand White rabbits; assay: Portal vein embolization (PVE) in rabbits, 6-ECDCA vs vehicle (Example 4); type: in vivo, rabbit
Source text: Female New Zealand White rabbits with a mean weight of 3.0±0.5 kg were acclimatized for 1 week under standardized laboratory conditions in a temperature-controlled room. The animals were individually housed, had free access to standard laboratory food and water, and were subjected to a 12-h light/dark cycle per day. The rabbits were divided into two groups receiving 6-ECDCA and two control groups receiving vehicle. Specifically, the PVE study rabbits were divided into following groups: • Group 1: Normal diet (6-ECDCA 10 mg/kg/day, oral gavage) (N=6), animals sacrificed at day 7, post PVE. • Group 2: Normal diet (Vehicle) (N=6), animals sacrificed at day 7 post PVE. • Group 3: Normal diet (6-ECDCA 10 mg/kg/day, oral gavage) (N=6), animals sacrificed at day 3, post PVE. • Group 4: Normal diet (Vehicle) (N=6), animals sacrificed at day 3, post PVE.
The rabbit liver consists of four liver lobes, three of which are positioned cranially, with the fourth located caudally. In the rabbit PVE model the cranial liver lobes, which account for approximately 80% of the total liver volume, were embolized. The rabbit was placed in a supine position after subcutaneous injection of 0.03 mg/kg buprenorphine and 0.02 mg/kg enrofloxacin. Rabbits were given enrofloxacin 0.02 mg/kg subcutaneously once a day for 3d postoperatively. Animals were anesthetized by intramuscular injection of 25.0 mg/kg ketamine and 0.2 mg/kg dexmedetomidine. Isoflurane 1%-2% with O2/air (1:0.7 L/min) was used to maintain anesthesia. Heart rate and arterial oxygen saturation were measured by pulse oximetry continuously throughout the procedure.
To identify the individual portal branches, portography was performed. After passing the portal branch to the caudal liver lobe, a microcatheter was positioned into the main portal branch supplying the cranial liver lobes. Animals received an initial mixture of contrast (Visipaque) and 90-180 μm polyvinyl alcohol (PVA) particles, followed by injection of 300-500 μm PVA particles until cessation of flow and placement of three platinum coils (6 mm). Portography directly after PVE confirmed total occlusion of the cranial portal blood flow in the embolization groups. The hypertrophy and atrophy responses of the caudal and cranial lobes were measured using CT volumetry before embolization and on day 3 and 7 post-embolization.
Multiphasic CT scans were performed using a 64-slice CT scan (Brilliance 64-channel; Philips, Eindhoven, The Netherlands). Rabbits were placed in supine position. After a blank series, a contrast enhanced scan was performed 15 s (arterial phase), 30 s (portal phase), and 45 s (venous phase) after contrast injection (4 mL Visipaque), followed by 3 mL NaCl. 3D-reconstructions of the liver were made using reconstructed 2 mm axial slices. The total liver and the cranial and caudal liver lobes were manually delineated and total liver volume (TLV) and the caudal liver volume (CLV) and cranial liver volume (CrLV) were calculated.
The following measurements were carried out: (1) body weight, (2) computed tomography of the embolized and non-embolized lobes, (3) expression of cell cycle-related and bile salt homeostasis-related transcripts in the liver, (4) expression of ileal transcripts, and (5) serum total bile salt concentration.
Serum bile salt concentration was determined at baseline, at 3 h, and at days 1, 3, and 7 post PVE. […]

[2] = tested on: Ki67-positive hepatocytes; assay: Ki67 staining of liver sections, hepatocyte proliferation after PVE (Example 5); type: in vivo, rabbit
Experimental: Liver tissue (left lateral and caudal lobes) was fixed in buffered formalin for 48 h, and subsequently dehydrated and embedded in paraffin. Four-micron sections of liver tissue were cut and stained with standard hematoxylin and eosin stain. Sections were scored for lobular and portal inflammation according to Table 1. Additionally, liver sections were stained with Ki67 antibodies to quantify hepatocyte proliferation, and hematoxylin counterstain as described in detail previously (van der Loos C M, et al. J Histochern Cytochern 2013; 61(1):11-8; Marsman H A, et al. Br J Surg 2013; 100(5):674-83). Ki67-positive hepatocytes were counted in a total of five high power fields per animal, by a hepatopathologist (JV) blinded to the group allocation. Liver histology was assessed at day 3 and 7 for n=6 per treatment group.

Wistar rats = assay: Liver regrowth after 70% partial hepatectomy in post-cholestatic rats (Example 6); type: in vivo
Source text: Seven days after BDL or sham operation, all rats were subjected to 70% PHx [DeGraaf 2011]. In all rBDL rats, intestinal bile flow was restored directly prior to PHx by removing the closed cannula tip and inserting the cannula into the duodenum. Animals in all treatment groups were put on regular chow after PHx. OCA treatment was continued after PHx until sacrifice. As depicted in Scheme 1, the study consisted of five experimental groups (n=4-6 animals per group per time point): control (sham), steatosis (MCD), cholestasis (rBDL), combined steatosis and cholestasis (rBDL+MCD), and cholestasis+OCA (rBDL+OCA).
At baseline (i.e., directly before PHx) and one to five days after PHx, animals were euthanized under isoflurane anesthesia by exsanguination. Blood samples were collected from the caval vein in heparin-anticoagulated vacutainers (BD, Franklin Lakes, N.J.) and centrifuged for 10 min (3000×g, 4° C.). In rBDL animals sacrificed at baseline, bile was aspirated with a syringe from the dilated extrahepatic bile duct, weighed, and stored at −80° C. The liver and ileum were excised, weighed, loafed, and either fixed in a 10% (vol/vol) neutralized formalin solution (J. T. Baker, Center Valley, Pa.), snap-frozen in liquid nitrogen and stored at −80° C., or collected in RNAlater (Qiagen, Venlo, the Netherlands) and stored at −20° C. Liver regrowth was calculated from the regenerated liver mass, and was expressed as percentage of total liver mass prior to PHx. The projected remnant liver mass was calculated using the weight of the resected liver segments, which represent 70% of the total liver mass. Dry liver weights were measured to correct for hepatic water content [Kloek 2010a].
After formalin fixation, liver specimens were dehydrated, paraffin-embedded, and stained with hematoxylin and eosin (H&E), the collagen type I and III stain picrosirius red, or the proliferation marker Ki67 [Marsman 2013]. Semi-quantitative analysis of H&E- and picrosirius red-stained liver histology was performed by an experienced hepatopathologist (JV) blinded to the experimental groups using a scoring system detailed in Table 1. Ki67-positive hepatocyte nuclei were manually counted by two observers (RFG and PBO) in four randomly-selected microscopic fields at 200× magnification.

mice = details: 2 years, 25 mg/kg; cited from earlier work

Compound: CC[C@H]1[C@@H](O)[C@@H]2[C@H](CC[C@]3(C)[C@@H]([C@H](C)CCC(=O)O)CC[C@@H]23)[C@@]2(C)CC[C@@H](O)C[C@@H]12 [Compound 1, 3α,7α-dihydroxy-6α-ethyl-5β-cholanic acid]
- increase in caudal liver volume (CLV) ([1]; CT, days 3 and 7 post embolization, FIG. 3): accelerates hypertrophy of the non-embolized lobe
- concentration of serum bile salts vs control ([1]; day 1 post PVE, FIG. 8): relatively lower
- body weight, difference vs vehicle ([1]; each day of the study, FIG. 2): not statistically significant
- decrease in cranial liver lobe volume (CrLV) ([1]; embolized lobe, FIG. 5): does not affect atrophy of the embolized lobe
- liver regeneration and liver mass ([1]; rabbit PVE model, 10 mg/kg/day oral gavage): accelerates liver regeneration and increases liver mass
- number of Ki67-positive hepatocytes relative to vehicle ([2]; 3 days after PVE): 1.6 fold
- Ki67-positive hepatocytes vs vehicle ([2]; day +3): Increased numbers
- dry weight of the remnant liver (Wistar rats; at the time of PHx, vs other two groups): higher
- number of Ki67+ hepatocytes (Wistar rats; day one after PHx): highest
- mortality (Wistar rats; regeneration phase): no mortality
- liver regrowth after 70% PHx (Wistar rats; vs untreated rBDL and control rats): stalled
- malignant transformation (mice): does not lead to malignant transformation
